Results taken from patent US8344008B2 (Janssen Pharmaceutica NV, priority 2007, dated 2013).

What follows are compounds tested against T1, recombinant human LTA4 hydrolase (rhLTA4H) (Homo sapiens, UniProt P09960) (assay: Recombinant Human LTA4 Hydrolase Assay for LTA4 Hydrolase Inhibitor Activity). Settings: average of results obtained; LTB4 quantified by enzyme-linked immunoassay.
T1 construct: made in house; host or cells: Spodoptera frugiperda (Sf-9) cells, baculovirus (pFastBac1)
T1 sequence (P09960 1-611): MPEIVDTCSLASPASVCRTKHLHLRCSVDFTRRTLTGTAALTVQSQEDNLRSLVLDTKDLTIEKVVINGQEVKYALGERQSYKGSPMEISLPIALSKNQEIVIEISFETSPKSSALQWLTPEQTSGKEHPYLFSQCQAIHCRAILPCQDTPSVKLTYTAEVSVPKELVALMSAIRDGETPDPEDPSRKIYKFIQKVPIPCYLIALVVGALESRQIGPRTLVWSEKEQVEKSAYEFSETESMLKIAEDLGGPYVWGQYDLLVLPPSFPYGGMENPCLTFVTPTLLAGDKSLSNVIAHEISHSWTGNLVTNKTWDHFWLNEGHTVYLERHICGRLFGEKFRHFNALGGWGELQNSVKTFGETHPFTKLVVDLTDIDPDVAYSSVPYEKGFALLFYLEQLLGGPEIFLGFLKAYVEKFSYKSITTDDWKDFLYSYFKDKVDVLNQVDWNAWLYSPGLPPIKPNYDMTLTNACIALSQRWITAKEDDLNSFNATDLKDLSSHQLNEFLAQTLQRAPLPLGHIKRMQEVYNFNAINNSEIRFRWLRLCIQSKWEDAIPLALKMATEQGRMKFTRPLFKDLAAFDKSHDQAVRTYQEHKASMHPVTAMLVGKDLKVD
Format: biochemical
In short: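 LTB4 formation, quantified by EIA after 10 min at rt, was the read-out once 9 ng LTA4 (free acid) was added to recombinant human enzyme (36 ng, Sf-9 expressed) that had sat 10 min with compound. Buffer: 0.1 M potassium phosphate pH 7.4 with fatty-acid-free BSA; IC50 by 4-parameter fit.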

Row | Compound | Ki [nM]
1 | Cc1ccc2nc(Oc3ccc(CCN[C@@H]4C[C@H]5CC[C@@H](C4)N5C(N)=O)cc3)sc2c1 [Example 173, meso-exo-3-{2-[4-(6-Methyl-benzothiazol-2-yloxy)-phenyl]-ethylamino}-8-aza-bicyclo[3.2.1]octane-8-carboxylic acid amide] | 973
2 | NC(=O)N1C[C@H]2C[C@@H]1CN2CCOc1ccc(Oc2nc3cc(Cl)ccc3s2)cc1 [Example 176, (R,R)-5-{2-[4-(5-Chloro-benzothiazol-2-yloxy)-phenoxy]-ethyl}-2,5-diaza-bicyclo[2.2.1]heptane-2-carboxylic acid amide] | 431
3 | CC(=O)N1[C@@H]2CC[C@H]1C[C@H](NCCOc1ccc(Oc3nc4ccc(Cl)cc4s3)cc1)C2 [Example 178, meso-exo-1-(3-{2-[4-(6-Chloro-benzothiazol-2-yloxy)-phenoxy]-ethylamino}-8-aza-bicyclo[3.2.1]oct-8-yl)-ethanone] | 900
4 | CS(=O)(=O)N1C[C@H]2C[C@@H]1CN2Cc1ccc(Oc2nc3cc(Cl)ccc3s2)cc1 [Example 181, (R,R)-5-Chloro-2-[4-(5-methanesulfonyl-2,5-diaza-bicyclo[2.2.1]hept-2-ylmethyl)-phenoxy]-benzothiazole] | 1470
5 | CS(=O)(=O)N1C[C@@H]2C[C@H]1CN2CCOc1ccc(Oc2nc3cccc(Cl)c3s2)cc1 [Example 182, (S,S)-7-Chloro-2-{4-[2-(5-methanesulfonyl-2,5-diaza-bicyclo[2.2.1]hept-2-yl)-ethoxy]-phenoxy}-benzothiazole] | 1590
6 | CC(=O)N1C[C@H]2C[C@@H]1CN2Cc1ccc(Oc2nc3cc(F)ccc3s2)cc1 [Example 183, (R,R)-1-{5-[4-(5-Fluoro-benzothiazol-2-yloxy)-benzyl]-2,5-diaza-bicyclo[2.2.1]hept-2-yl}-ethanone] | 383
7 | CC(=O)N1[C@@H]2CC[C@H]1C[C@H](NCc1ccc(Oc3nc4ccc(C)cc4s3)cc1)C2 [Example 184, meso-exo-1-{3-[4-(6-Methyl-benzothiazol-2-yloxy)-benzylamino]-8-aza-bicyclo[3.2.1]oct-8-yl}-ethanone] | 406
8 | CS(=O)(=O)N1[C@@H]2CC[C@H]1C[C@H](NCc1ccc(Oc3nc4cc(Cl)ccc4s3)cc1)C2 [Example 185, meso-exo-[4-(5-Chloro-benzothiazol-2-yloxy)-benzyl]-(8-methanesulfonyl-8-aza-bicyclo[3.2.1]oct-3-yl)-amine] | 965
9 | CC(=O)N[C@H]1C[C@H]2CC[C@@H](C1)N2CCc1ccc(Oc2nc3cccc(Cl)c3s2)cc1 [Example 187, meso-endo-N-(8-{2-[4-(7-Chloro-benzothiazol-2-yloxy)-phenyl]-ethyl}-8-aza-bicyclo[3.2.1]oct-3-yl)-acetamide] | 975
10 | CS(=O)(=O)N1C[C@H]2C[C@@H]1CN2CCc1ccc(Oc2nc3cccc(Cl)c3s2)cc1 [Example 192, (R,R)-7-Chloro-2-{4-[2-(5-methanesulfonyl-2,5-diaza-bicyclo[2.2.1]hept-2-yl)-ethyl]-phenoxy}-benzothiazole] | > 10000
11 | Cc1ccc2nc(Oc3ccc(CCN4C[C@H]5C[C@@H]4CN5S(C)(=O)=O)cc3)sc2c1 [Example 193, (R,R)-2-{4-[2-(5-Methanesulfonyl-2,5-diaza-bicyclo[2.2.1]hept-2-yl)-ethyl]-phenoxy}-6-methyl-benzothiazole] | 612
12 | CS(=O)(=O)N1[C@@H]2CC[C@H]1C[C@@H](NCCOc1ccc(Oc3nc4c(Cl)cccc4s3)cc1)C2 [Example 194, meso-endo-{2-[4-(4-Chloro-benzothiazol-2-yloxy)-phenoxy]-ethyl}-(8-methanesulfonyl-8-aza-bicyclo[3.2.1]oct-3-yl)-amine] | 3140
13 | CC(=O)N[C@@H]1C[C@H]2CC[C@@H](C1)N2CCOc1ccc(Oc2nc3cccc(Cl)c3s2)cc1 [Example 195, meso-exo-N-(8-{2-[4-(7-Chloro-benzothiazol-2-yloxy)-phenoxy]-ethyl}-8-aza-bicyclo[3.2.1]oct-3-yl)-acetamide] | 1660
14 | NC(=O)N1C[C@H]2C[C@@H]1CN2Cc1ccc(Oc2nc3cccc(Cl)c3s2)cc1 [Example 196, (R,R)-5-[4-(7-Chloro-benzothiazol-2-yloxy)-benzyl]-2,5-diaza-bicyclo[2.2.1]heptane-2-carboxylic acid amide] | 793

Continued by falling Ki, values first:

Row | Ki [nM] | Compound
15 | 375 | CS(=O)(=O)N1C[C@H]2C[C@@H]1CN2Cc1ccc(Oc2nc3cccc(F)c3s2)cc1 [Example 189, (R,R)-7-Fluoro-2-[4-(5-methanesulfonyl-2,5-diaza-bicyclo[2.2.1]hept-2-ylmethyl)-phenoxy]-benzothiazole]
16 | 196 | CS(=O)(=O)N1CC2CCC(C1)N2Cc1ccc(Oc2nc3cccc(Cl)c3s2)cc1 [Example 174, meso-7-Chloro-2-[4-(3-methanesulfonyl-3,8-diaza-bicyclo[3.2.1]oct-8-ylmethyl)-phenoxy]-benzothiazole]
17 | 145 | CS(=O)(=O)N1C[C@H]2C[C@@H]1CN2Cc1ccc(Oc2nc3ccc(F)cc3s2)cc1 [Example 201, (R,R)-6-Fluoro-2-[4-(5-methanesulfonyl-2,5-diaza-bicyclo[2.2.1]hept-2-ylmethyl)-phenoxy]-benzothiazole]
18 | 127 | NC(=O)N[C@@H]1C[C@H]2CC[C@@H](C1)N2CCc1ccc(Oc2nc3cc(Cl)ccc3s2)cc1 [Example 202, meso-exo-(8-{2-[4-(5-Chloro-benzothiazol-2-yloxy)-phenyl]-ethyl}-8-aza-bicyclo[3.2.1]oct-3-yl)-urea]
19 | 124 | CC(=O)N1C[C@H]2C[C@@H]1CN2CCOc1ccc(Oc2nc3ccc(C)cc3s2)cc1 [Example 180, (R,R)-1-(5-{2-[4-(6-Methyl-benzothiazol-2-yloxy)-phenoxy]-ethyl}-2,5-diaza-bicyclo[2.2.1]hept-2-yl)-ethanone]
20 | 94 | CC(=O)N1C[C@H]2C[C@@H]1CN2CCOc1ccc(Oc2nc3ccc(Cl)cc3s2)cc1 [Example 177, (R,R)-1-(5-{2-[4-(6-Chloro-benzothiazol-2-yloxy)-phenoxy]-ethyl}-2,5-diaza-bicyclo[2.2.1]hept-2-yl)-ethanone]
21 | 85 | CC(=O)N1[C@@H]2CC[C@H]1C[C@@H](NCCc1ccc(Oc3nc4cc(F)ccc4s3)cc1)C2 [Example 197, meso-endo-1-(3-{2-[4-(5-Fluoro-benzothiazol-2-yloxy)-phenyl]-ethylamino}-8-aza-bicyclo[3.2.1]oct-8-yl)-ethanone]
22 | 65 | Cc1ccc2nc(Oc3ccc(CN4[C@@H]5CC[C@H]4C[C@H](NS(C)(=O)=O)C5)cc3)sc2c1 [Example 200, meso-exo-N-{8-[4-(6-Methyl-benzothiazol-2-yloxy)-benzyl]-8-aza-bicyclo[3.2.1]oct-3-yl}-methanesulfonamide]
23 | 53 | CC(=O)N1[C@@H]2CC[C@H]1C[C@@H](NCc1ccc(Oc3nc4ccc(F)cc4s3)cc1)C2 [Example 175, meso-endo-1-{3-[4-(6-Fluoro-benzothiazol-2-yloxy)-benzylamino]-8-aza-bicyclo[3.2.1]oct-8-yl}-ethanone]
24 | 47 | NC(=O)N[C@@H]1C[C@H]2CC[C@@H](C1)N2CCc1ccc(Oc2nc3ccc(F)cc3s2)cc1 [Example 179, meso-exo-(8-{2-[4-(6-Fluoro-benzothiazol-2-yloxy)-phenyl]-ethyl}-8-aza-bicyclo[3.2.1]oct-3-yl)-urea]
25 | 32 | CS(=O)(=O)N1C[C@@H]2C[C@H]1CN2CCOc1ccc(Oc2nc3c(F)cccc3s2)cc1 [Example 191, (S,S)-4-Fluoro-2-{4-[2-(5-methanesulfonyl-2,5-diaza-bicyclo[2.2.1]hept-2-yl)-ethoxy]-phenoxy}-benzothiazole]
26 | 20 | CC(=O)N1CC2CCC(C1)N2CCOc1ccc(Oc2nc3cc(F)ccc3s2)cc1 [Example 199, meso-1-(8-{2-[4-(5-Fluoro-benzothiazol-2-yloxy)-phenoxy]-ethyl}-3,8-diaza-bicyclo[3.2.1]oct-3-yl)-ethanone]
27 | 16 | NC(=O)N[C@H]1C[C@H]2CC[C@@H](C1)N2CCc1ccc(Oc2nc3cccc(F)c3s2)cc1 [Example 190, meso-endo-(8-{2-[4-(7-Fluoro-benzothiazol-2-yloxy)-phenyl]-ethyl}-8-aza-bicyclo[3.2.1]oct-3-yl)-urea]
28 | 10 | NC(=O)N1C[C@H]2C[C@@H]1CN2Cc1ccc(Oc2nc3c(F)cccc3s2)cc1 [Example 186, (R,R)-5-[4-(4-Fluoro-benzothiazol-2-yloxy)-benzyl]-2,5-diaza-bicyclo[2.2.1]heptane-2-carboxylic acid amide]
29 | 9 | NC(=O)N1[C@@H]2CC[C@H]1C[C@@H](NCc1ccc(Oc3nc4c(F)cccc4s3)cc1)C2 [Example 198, meso-endo-3-[4-(4-Fluoro-benzothiazol-2-yloxy)-benzylamino]-8-aza-bicyclo[3.2.1]octane-8-carboxylic acid amide]
30 | 4 | CS(=O)(=O)N[C@@H]1C[C@H]2CC[C@@H](C1)N2Cc1ccc(Oc2nc3c(F)cccc3s2)cc1 [Example 188, meso-exo-N-{8-[4-(4-Fluoro-benzothiazol-2-yloxy)-benzyl]-8-aza-bicyclo[3.2.1]oct-3-yl}-methanesulfonamide]
